19 compounds from US6617332B1, “Tan-1057 derivatives” (Bayer Aktiengesellschaft, priority 1998, dated 2003) can be followed below.

In series [1] the test system is S. aureus 133. Briefly: Determination of the minimum inhibitory concentration (MIC), liquid dilution test. Format: cell-based. The conditions noted are these: Staphylococcus aureus; S. aureus 133; overnight culture diluted 1:1000 with foetal calf serum; 37° C., 18-24 hours; lowest concentration without visible growth; read-out: MIC in FCS (S.aureus; μg/ml). How it is done: (§1) The MIC was determined using the liquid dilution test. Overnight cultures of the test germs (S. aureus 133) in Isosensitest bouillon were diluted 1:1000 with foetal calf serum (FCS) or Isosensitest bouillon and incubated with dilutions of the test substances (successive dilutions of 1:2).
The cultures were incubated at 37° C. for 18-24 hours. In each case the lowest concentration of substance at which no visible bacterial growth took place, was defined as MIC.

Series [2] can be described thus: Vitality of HepG2 cells (Alamar Blue fluorescence). Format: cell-based. The conditions noted are these: human, HepG2 liver cells, HepG2, 40-48 hours, highest test concentration 10 μg/ml. How it is done:
(§2) The vitality and functionality of human HepG2 liver cells were examined after treatment with exemplary compounds. In each case 2×10^4−1×10^5 cells were incubated in RPMI 1640 (Whittacker) with 10% heat-inactivated foetal calf serum (Gibco) at 37° C. for 40-48 hours. The incubation volume of 200 μl contained the test substances in concentrations of 10, 2 and 0.4 μg/ml.
The vitality was examined after addition of 20 μl Alamar Blue (Biosource, Art. No. DAL 1100) by measuring the fluorescence (excitation: 544 nm, emission: 590 nm).
On the technique in general: Resazurin is reduced to fluorescent resorufin, in cell work by metabolically active cells.

Series [3] deals with apo B100 secretion of HepG2 cells. Briefly: Functionality of HepG2 cells: secretion of apo B100 (ELISA). The note with it: human, HepG2 liver cells, HepG2, 40-48 hours, highest test concentration 10 μg/ml. Format: cell-based. How it is done: as §2
(§3) The functionality of the HepG2 cells was examined by measuring the secretion of apo B100 and α2-macroglobulin after treatment. To this end, the protein content of the culture supernatants was determined by ELISA after incubation for 40-48 hours. Apo B100 was bound using rabbit ahLDL (1 mg/ml) and quantified using peroxidase-conjugated monoclonal antibodies (ahLDL_POD), with addition of the substrate TMB/H2O2. The optical density was measured at 450 nm.
(In an ELISA, binding on a coated surface is turned into a signal by an enzyme label.)

Series [4] concerns α2-macroglobulin secretion of HepG2 cells. Briefly: Functionality of HepG2 cells: secretion of α2-macroglobulin (ELISA). The conditions noted are these: human, HepG2 liver cells, HepG2, 40-48 hours, highest test concentration 10 μg/ml. Type of series: cell-based. How it is done: as §2, §3
To determine α2-macroglobulin, the ELISA system from Biodesign (Art.No. H 45205M) was used. Quantification was likewise carried out using the substrate TMB/H2O2, and measuring the optical density at 450 nm.

A short description of series [5]: Neutral Red vitality test using J774.A1 cells. Format: cell-based, murine. The conditions noted are these: mouse; J774.A1 murine macrophage cells, 72 hours with substance; vitality reduced to 50% of untreated control. How it is done: Compatibility tests of the exemplary compounds were carried out using cultures of eukaryotic cells. Hepatocytes (HepG2) and murine macrophage cells (J774.A1) were used as indicator for organ-specific toxicity. The murine macrophage cell line used is a particularly sensitive indicator for toxic effects.
In each case 1.2×10^4 cells were incubated at 37° C. for 24 hours. Test substances were added at different concentrations, and the cells were incubated for another 72 hours. The cells were then treated with 50 μl of Neutral Red solution (Sigma, No. N 2889) for 2 hours, washed with PBS medium and denaturated using an ethanol/glacial acetic acid mixture.
The cultures were measured in an Elisa reader at 540 nm and 630 nm. The IC50 values were extrapolated and indicate at which concentration the vitality of the cells, measured by the uptake of Neutral Red, is reduced to 50%, compared to untreated control cells.

Series [6] has as its system TAN 1057 A,B-resistant S. aureus 133. Briefly: MIC test with TAN 1057 A,B-resistant isolates from stepwise selection. The note with it: Staphylococcus aureus, read-out: MIC, isolate with medium resistance to TAN 1057 A,B. Type of series: cell-based. How it is done:
as §1
Bacteria of the strain S. aureus 133 were incubated with different concentrations of TAN 1057 A,B for 24 hours. […] This process was repeated for several days, selecting step by step bacteria having increased resistance to TAN 1057 A,B. The MIC of highly resistant S. aureus 133 bacteria was >100 μg/ml (initial MIC: <0.1 μg/ml). The bacteria from this selection series, having an MIC of <0.1, 0.8, 25, 100 and >100 μg/ml, were used for tests. It is thus possible to identify TAN 1057 A,B derivatives having antibacterial activity against TAN 1057 A,B-resistant cells.
The S. aureus 133 isolates with medium and high resistance to TAN 1057 A,B were tested in comparison to the derivatives of the invention.

For series [7], the system named is S. aureus 133. Briefly: Test of antibacterial activity in vivo (infected mice, survival). The conditions noted are these: mice infected i.p. with 1×10^6 S. aureus 133 in 5% mucine; intravenous administration 30 minutes after infection. How it is done:
Mice were infected with 1×10^6 bacteria of the strain S. aureus 133 in 5% mucine (i.p.) and treated by intravenous administration of the test substances 30 minutes after the infection. Without treatment, all infected animals died. The therapeutic doses for TAN 1057 A,B and the compound of Example 4 at which all infected animals survived (=ED100) was 1 mg/kg for both substances.

Series [8] in a line: Acute toxicity in mice (LD50). The note with it: mouse, in vivo, ip, intraperitoneal administration, dose at which 50% of treated mice survive. How it is done:
The acute toxicity of the substances was determined by determining the dose at which 50% of the treated mice survive (=LD50). Following intraperitoneal administration of the test substances, the LD50 for TAN 1057 A,B was 100 mg/kg. The LD50 for the compound of Example 4 was >400 mg/kg.

Structures can show the parent of a compound that is named as a salt.

A word on the melting point: it is the temperature of the solid-liquid transition. The compound `CCN(C(=O)C[C@@H](N)CCCNC(=N)N)C1CNC(NC(N)=O)=NC1=O` (stereo partly drawn) (as salt: hydrochloride) [Example 15, (3′S,5R,S)-5-[N-Ethyl-N-(3′-amino-6′-guanidinohexanoyl)amino]-5,6-dihydro-2-ureido-4(1H)-pyrimidone Dihydrochloride] showed a melting point of 170 to 172 °C.
A word on the MIC: it is the least concentration at which growth counts as inhibited. A word on the IC50: it is the concentration at which inhibition is half-maximal. The low end stands for higher potency, the high end for lower potency. As to `CN(C(=O)C[C@@H](N)CCCCNC(=N)N)C1CNC(NC(N)=O)=NC1=O` (stereo partly drawn) [Example 1, (3′S,5R,S)-5-[N-Methyl-N-(3′-amino-7′-guanidinoheptanoyl)amino]-5,6-dihydro-2-ureido-4(1H)-pyrimidone Dihydrochloride], the MIC in series [1] came out at 0.2 µg/mL. The IC50 in [2], in [3] and in series [4] was > 10 µg/mL throughout. This compound also came in with an IC50 at 72 h in series [5] of 3 µg/mL.
Turning to `CN(C(=O)CC(N)c1cccc(NC(=N)N)c1)C1CNC(NC(N)=O)=NC1=O` (stereo not drawn) [Example 2, (3′RS,5RS)-5-{N-Methyl-N-[3′-amino-3′-(3-guanidylphenyl)propionyl]amino}-5,6-dihydro-2-ureido-4(1H)-pyrimidone Dihydrochloride], in series [1], the MIC was found to be 50 µg/mL. Moreover, the IC50 in series [2], in series [3] and in series [4] was > 10 µg/mL each time. Half-maximal inhibition in series [5] (IC50 at 72 h) was put at 6 µg/mL.
On to `CN(C(=O)C[C@@]1(N)C[C@H]1CCNC(=N)N)C1CNC(NC(N)=O)=NC1=O` (stereo partly drawn) [Example 3, 5-{N-Methyl-N-2′-[1-amino-2-(2-guanidinoethyl)cyclopropyl]acetamino}-5,6-dihydro-2-ureido-4(1H)-pyrimidone Dihydrochloride], for which the MIC in [1] worked out at 100 µg/mL. The compound also came in with an IC50 at 72 h in series [5] of 40 µg/mL.
In general, LD50 refers to the dose expected to kill half of the subjects tested. A low value points to a more toxic substance. Turning to `CN(C(=O)C[C@@H](N)CCCN)C1CNC(NC(N)=O)=NC1=O` (stereo partly drawn) [Example 4, (3′S,5R,S)-5-[N-Methyl-N-(3′,6′-diaminohexanoyl)amino]-5,6-dihydro-2-ureido-4(1H)-pyrimidone Dihydrochloride], the figures for the MIC in [1] and in [6] were 0.4 µg/mL and 0.2 µg/mL, respectively. The “ED100 (therapeutic dose at which all infected animals survived)” value in [7] is reported as 1 mg/kg. In series [5], this compound showed an IC50 at 72 h of 25 µg/mL. Besides, the LD50 in [8] was > 400 mg/kg.
For `CN(C(=O)C[C@@H](N)CCCCN)C1CNC(NC(N)=O)=NC1=O` (stereo partly drawn) [Example 5, (3′S,5R,S)-5-[N-Methyl-N-(3′,7′-diaminoheptanoyl)amino]-5,6-dihydro-2-ureido-4(1H)-pyrimidone Dihydrochloride], the MIC in [1] was 0.1 µg/mL. Moreover, in series [5], the IC50 at 72 h stood at 6 µg/mL.
As to `CNC(=N)NCCC[C@H](N)CC(=O)N(C)C1CNC(NC(N)=O)=NC1=O` (stereo partly drawn) [Example 6, (3′S,5R,S)-5-{N-Methyl-N-[3′-amino-6′-(N′-methylguanidino)hexanoyl]amino}-5,6-dihydro-2-ureido-4(1H)-pyrinidone Dihydrochloride], the MIC in [1] came to 0.8 µg/mL. Besides, it took 5.5 µg/mL to reach half-maximal inhibition in [5] (IC50 at 72 h).
Take `CCNCCC[C@H](N)CC(=O)N(C)C1CNC(NC(N)=O)=NC1=O` (stereo partly drawn) [Example 7, (3′S,5R,S)-5-[N-Methyl-N-(3′-amino-6′-ethylaminohexanoyl)amino]-5,6-dihydro-2-ureido-4(1H)-pyrimidone Dihydrochloride]: in [1], the MIC came to 0.8 µg/mL. In series [5], this compound registered an IC50 at 72 h of 50 µg/mL.
With `CN(C(=O)C[C@@H](N)CCN)C1CNC(NC(N)=O)=NC1=O` (stereo partly drawn) [Example 8, (3′S,5R,S)-5-[N-Methyl-N-(3′,5′-diaminopentanoyl)amino]-5,6-dihydro-2-ureido-4(1H)-pyrimidone Dihydrochloride], the MIC in [1] turned out to be 1.6 µg/mL. In series [5], this compound displayed an IC50 at 72 h of 1.8 µg/mL.
With `N=C(N)NCCC[C@H](N)CC(=O)NC1CNC(NC(N)=O)=NC1=O` (stereo partly drawn) [Example 9, (3′R,5R,S)-5-[N-(3′-amino-6′-guanidinohexanoyl)amino]-5,6-dihydro-2-ureido-4(1H)-pyrimidone Dihydrochloride], the MIC in series [1] is 1.6 µg/mL.
Turning to `CCN(C(=O)C[C@@H](N)CCCN)C1CNC(NC(N)=O)=NC1=O` (stereo partly drawn) [Example 10, (3′S,5R,S)-5-[N-Ethyl-N-(3′,6′-diaminohexanoyl)amino]-5,6-dihydro-2-ureido-4(1H)-pyrimidone Dihydrochloride], in series [1], the MIC worked out at 3.2 µg/mL.
In the case of `CN(C(=O)CC[C@@H](N)CCCN)C1CNC(NC(N)=O)=NC1=O` (stereo partly drawn) [Example 11, (4′S,5R,S)-5-[N-Methyl-N-(4′,7′-diaminoheptanoyl)amino]-5,6-dihydro-2-ureido-4(1H)-pyrimidone Dihydrochloride], the MIC in series [1] was 3.2 µg/mL.
On to `CN(C(=O)C[C@H](N)CCCN)C1CNC(NC(N)=O)=NC1=O` (stereo partly drawn) [Example 12, (3′R,5R,S)-5-[N-Methyl-N-(3′,6′-diaminohexanoyl)amino]-5,6-dihydro-2-ureido-4(1H)-pyrimidone Dihydrochloride], for which the MIC in [1] came out at 6.3 µg/mL.
With `CN(C(=O)C[C@@H](N)CCC(N)=O)C1CNC(NC(N)=O)=NC1=O.Cl` (stereo partly drawn) [Example 13, (3′R,5R,S)-5-[N-Methyl-N-(3′-amino-5′-carbamoyl-pentanoyl)amino]-5,6-dihydro-2-ureido-4(1H)-pyrimidone Dihydrochloride], in series [1], the MIC was determined as 12.5 µg/mL.
In the case of `NCCC[C@H](N)CC(=O)NC1CNC(NC(N)=O)=NC1=O` (stereo partly drawn) [Example 14, (3′R,5R,S)-5-[N-(3′,6′-Diaminohexanoyl)amino]-5,6-dihydro-2-ureido-4(1H)-pyrimidone Dihydrochloride], in series [1], the MIC amounted to 12.5 µg/mL.
As for `CCN(C(=O)C[C@@H](N)CCCNC(=N)N)C1CNC(NC(N)=O)=NC1=O` (stereo partly drawn) [Example 15, (3′S,5R,S)-5-[N-Ethyl-N-(3′-amino-6′-guanidinohexanoyl)amino]-5,6-dihydro-2-ureido-4(1H)-pyrimidone Dihydrochloride], the MIC in [1] is 100 µg/mL.
For `COC(=O)NCCC[C@H](N)CC(=O)N(C)C1CNC(NC(N)=O)=NC1=O.Cl` (stereo partly drawn) [Example 16, (3′S,5R,S)-5-[N-Methyl-N-(3′-amino-6′-methoxycarbonylaminohexanoyl)-amino]-5,6-dihydro-2-ureido-4(1H)-pyrimidone Hydrochloride], in series [1], the MIC amounted to 100 µg/mL.
In the case of `CN(C(=O)CC(N)CCCCCN)C1CNC(NC(N)=O)=NC1=O` [Example 17, (3′R,S,5R,S)-5-[N-Methyl-N-(3′,8′-diaminooctanoyl)amino]-5,6-dihydro-2-ureido-4(1H)-pyrimidone Dihydrochloride], the MIC in [1] was determined as 6.3 µg/mL.
The same measure, in the same setting: under `CN(C(=O)CC(N)CCC#N)C1CNC(NC(N)=O)=NC1=O.Cl` [Example 18, (3′R,S,5R,S)-5-[N-Methyl-N-(3′-amino-5′-cyanopentanoyl)amino]-5,6-dihydro-2-ureido-4(1H)-pyrimidone Hydrochloride] stands 12.5 µg/mL.
